Test results from patent US20230278972A1, “SUBSTITUTED HALOALKYL SULFONANILIDE HERBICIDES” (FMC Corporation, priority 2020, published 2023).

Tests used:
Format in all cases: in vivo
[1] = tested on: blackgrass (Alopecurus myosuroides); experiment: Test A1 preemergence, blackgrass
Summary of the method: (§1)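 Plants grown in pots of loam/sand mix; preemergence = soil-directed spray on seeded pots, postemergence = spray at 1–2 leaves, height 2–10 cm; test chemicals formulated in non-phytotoxic solvent with surfactant.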

[2] = tested on: ducksalad (Heteranthera limosa); experiment: Test B1 flooded paddy test, ducksalad; details: 250 g ai/ha, Flood, applied to paddy water, 2-leaf stage, visually evaluated after 10 to 14 days
From the text: A dash (-) response means no test result.

[3] = tested on: Ryegrass, Italian (Italian ryegrass, Lolium multiflorum); experiment: Test A1 postemergence, Ryegrass, Italian; details: Postemergence
Summary of the method: (§2)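 Both timings started from seed in a loam-sand blend. Preemergence pots got a directed soil application immediately; postemergence pots were sprayed when seedlings had one or two leaves and stood 2–10 cm. Each compound was prepared in a non-phytotoxic solvent plus surfactant.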

[4] = tested on: galium (catchweed bedstraw, Galium aparine); experiment: Test A1 postemergence, galium; details: Postemergence
Summary of the method: as §2

kochia (Bassia scoparia) = experiment: Test A1 preemergence, kochia
Summary of the method: as §1

[5] = tested on: Oat, Wild (wild oat, Avena fatua); experiment: Test A1 postemergence, Oat, Wild; details: Postemergence
Summary of the method: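 Seeds were first planted into a blend of loam soil and sand and given a preemergence directed soil spray. In parallel, pots of the same soil were sown for postemergence application once plants reached 2 to 10 cm and the one- to two-leaf stage. Both used surfactant-containing non-phytotoxic solvent formulations.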

[6] = 31 g ai/ha, 0 to 100 scale (0 no effect, 100 complete control)
[7] = 125 g ai/ha, 0 to 100 scale, 0 no effect, 100 complete control
[8] = 31 g ai/ha, 0 to 100 scale (0 no effect, 100 complete control), 10 days

CCc1cc(C)c(C2=NOC3(CCCC3)C2)cc1NS(=O)(=O)C(F)(F)F [Compound 311]
Plant response rating, Blackgrass [1, 6]: 20
Plant response rating, Blackgrass [1, 7]: 40
Plant response rating, Ducksalad (0 to 100 scale, 0 is no effect, 100 is complete control) [2]: 0
Plant response rating, Ryegrass, Italian [3, 8]: 0
Plant response rating, Ryegrass, Italian ([3]; 125 g ai/ha, 0 to 100 scale): 0
Plant response rating, Galium [4, 8]: 0
Plant response rating, Galium ([4]; 125 g ai/ha, 0 to 100 scale): 0
Plant response rating, Kochia (kochia (Bassia scoparia); [6]): 0
Plant response rating, Kochia (kochia (Bassia scoparia); [7]): 0
Plant response rating, Oat, Wild [5, 8]: 0
Plant response rating, Oat, Wild ([5]; 125 g ai/ha, 0 to 100 scale): 0

COc1cc(C)c(NS(=O)(=O)C(F)(F)F)cc1C1=NOC2CCCC12 (centres unmarked) [Compound 312]
Plant response rating, Blackgrass [1, 6]: 0
Plant response rating, Blackgrass [1, 7]: 0
Plant response rating, Ducksalad (0 to 100 scale, 0 is no effect, 100 is complete control) [2]: 0
Plant response rating, Ryegrass, Italian [3, 8]: 0
Plant response rating, Ryegrass, Italian ([3]; 125 g ai/ha, 0 to 100 scale): 20
Plant response rating, Galium [4, 8]: 0
Plant response rating, Galium ([4]; 125 g ai/ha, 0 to 100 scale): 30
Plant response rating, Kochia (kochia (Bassia scoparia); [6]): 0
Plant response rating, Kochia (kochia (Bassia scoparia); [7]): 0
Plant response rating, Oat, Wild [5, 8]: 0
Plant response rating, Oat, Wild ([5]; 125 g ai/ha, 0 to 100 scale): 20

Cc1cc(C2CC2)c(NS(=O)(=O)C(F)(F)F)cc1C1=NOC2(CCCC2)C1 [Compound 313]
Plant response rating, Blackgrass [1, 6]: 0
Plant response rating, Blackgrass [1, 7]: 0
Plant response rating, Ducksalad (0 to 100 scale, 0 is no effect, 100 is complete control) [2]: 0
Plant response rating, Ryegrass, Italian [3, 8]: 0
Plant response rating, Ryegrass, Italian ([3]; 125 g ai/ha, 0 to 100 scale): 0
Plant response rating, Galium [4, 8]: 0
Plant response rating, Galium ([4]; 125 g ai/ha, 0 to 100 scale): 30
Plant response rating, Kochia (kochia (Bassia scoparia); [6]): 0
Plant response rating, Kochia (kochia (Bassia scoparia); [7]): 0
Plant response rating, Oat, Wild [5, 8]: 0
Plant response rating, Oat, Wild ([5]; 125 g ai/ha, 0 to 100 scale): 0

Cc1cc(C)c(N(COC(=O)OC(C)C)S(=O)(=O)C(F)(F)F)cc1C1=NOC2CCCC12 (centres unmarked) [Compound 314]
Plant response rating, Blackgrass [1, 6]: 0
Plant response rating, Blackgrass [1, 7]: 20
Plant response rating, Ducksalad (0 to 100 scale, 0 is no effect, 100 is complete control) [2]: 90
Plant response rating, Ryegrass, Italian [3, 8]: 10
Plant response rating, Ryegrass, Italian ([3]; 125 g ai/ha, 0 to 100 scale): 70
Plant response rating, Galium [4, 8]: 60
Plant response rating, Galium ([4]; 125 g ai/ha, 0 to 100 scale): 70
Plant response rating, Kochia (kochia (Bassia scoparia); [6]): 0
Plant response rating, Kochia (kochia (Bassia scoparia); [7]): 70
Plant response rating, Oat, Wild [5, 8]: 0
Plant response rating, Oat, Wild ([5]; 125 g ai/ha, 0 to 100 scale): 10

COC(=O)OCN(c1cc(C2=NOC3CCCC23)c(C)cc1C)S(=O)(=O)C(F)(F)F (centres unmarked) [Compound 315]
Plant response rating, Blackgrass [1, 6]: 20
Plant response rating, Blackgrass [1, 7]: 60
Plant response rating, Ducksalad (0 to 100 scale, 0 is no effect, 100 is complete control) [2]: 90
Plant response rating, Ryegrass, Italian [3, 8]: 10
Plant response rating, Ryegrass, Italian ([3]; 125 g ai/ha, 0 to 100 scale): 70
Plant response rating, Galium [4, 8]: 70
Plant response rating, Galium ([4]; 125 g ai/ha, 0 to 100 scale): 90
Plant response rating, Kochia (kochia (Bassia scoparia); [6]): 0
Plant response rating, Kochia (kochia (Bassia scoparia); [7]): 60
Plant response rating, Oat, Wild [5, 8]: 0
Plant response rating, Oat, Wild ([5]; 125 g ai/ha, 0 to 100 scale): 20

Cc1cc(C)c(N(COC(=O)OC(C)(C)C)S(=O)(=O)C(F)(F)F)cc1C1=NOC2CCCC12 (centres unmarked) [Compound 316]
Plant response rating, Blackgrass [1, 6]: 0
Plant response rating, Blackgrass [1, 7]: 0
Plant response rating, Ducksalad (0 to 100 scale, 0 is no effect, 100 is complete control) [2]: 90
Plant response rating, Ryegrass, Italian [3, 8]: 0
Plant response rating, Ryegrass, Italian ([3]; 125 g ai/ha, 0 to 100 scale): 30
Plant response rating, Galium [4, 8]: 40
Plant response rating, Galium ([4]; 125 g ai/ha, 0 to 100 scale): 50
Plant response rating, Kochia (kochia (Bassia scoparia); [6]): 0
Plant response rating, Kochia (kochia (Bassia scoparia); [7]): 50
Plant response rating, Oat, Wild [5, 8]: 0
Plant response rating, Oat, Wild ([5]; 125 g ai/ha, 0 to 100 scale): 10

Cc1cc(C)c(N(COC(=O)N(C)C)S(=O)(=O)C(F)(F)F)cc1C1=NOC2CCCC12 (centres unmarked) [Compound 317]
Plant response rating, Blackgrass [1, 6]: 0
Plant response rating, Blackgrass [1, 7]: 0
Plant response rating, Ducksalad (0 to 100 scale, 0 is no effect, 100 is complete control) [2]: 30
Plant response rating, Ryegrass, Italian [3, 8]: 0
Plant response rating, Ryegrass, Italian ([3]; 125 g ai/ha, 0 to 100 scale): 0
Plant response rating, Galium [4, 8]: 0
Plant response rating, Galium ([4]; 125 g ai/ha, 0 to 100 scale): 0
Plant response rating, Kochia (kochia (Bassia scoparia); [6]): 0
Plant response rating, Kochia (kochia (Bassia scoparia); [7]): 0
Plant response rating, Oat, Wild [5, 8]: 0
Plant response rating, Oat, Wild ([5]; 125 g ai/ha, 0 to 100 scale): 0
